{"source": "patent US20130144636A1", "about": "“Method and System for Predicting Adverse Drug Reactions Using BioAssay Data” (The Board of Trustees of the Leland Stanford, Junior, …, priority 2011, published 2013)", "origin": "cited, not measured here", "key": {"[1]": {"details": "FDA drug label, DRUGDEX or literature case report"}, "murine bone marrow": {"tested_on": "murine bone marrow", "details": "in vivo murine bone marrow micronucleus tests"}, "[2]": {"details": "in vitro mutagenesis tests such as the Ames test"}, "[3]": {"biological_target": "glutathione-S-transferase μ (GSTP1) (Homo sapiens, UniProt P09211)", "sequence (P09211 2-210 limits assumed)": "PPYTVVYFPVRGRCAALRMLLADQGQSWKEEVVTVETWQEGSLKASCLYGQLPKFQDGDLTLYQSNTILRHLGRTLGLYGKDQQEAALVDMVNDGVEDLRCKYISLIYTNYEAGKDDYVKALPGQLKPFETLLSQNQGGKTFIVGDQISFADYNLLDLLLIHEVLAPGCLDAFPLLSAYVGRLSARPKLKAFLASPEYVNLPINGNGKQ"}, "interleukin-1 (IL-1)": {"tested_on": "interleukin-1 (IL-1)", "details": "in vitro"}}, "note": "Like-named read-outs stand apart in the source and are kept apart here."}
{"smiles": "Oc1c(I)cc(Cl)c2cccnc12", "note": "[clioquinol]", "values": [{"measurement": "known adverse drug reaction in humans", "setting": "[1]", "value": "associated with subacute myelo-optic neuropathy (SMON) syndrome"}]}
{"smiles": "Oc1ccc(O)cc1", "note": "[hydroquinone]", "values": [{"measurement": "genotoxic carcinogenic activity", "setting": "murine bone marrow", "value": "genotoxic carcinogenic activity"}, {"measurement": "genotoxic carcinogenic activity", "setting": "murine bone marrow; listed as Hydroquinone", "value": "carcinogenic"}, {"measurement": "mutagenic activity in vitro", "setting": "[2]", "value": "but not in in vitro mutagenesis tests"}, {"measurement": "mutagenic activity in vitro", "setting": "[2]; listed as Hydroquinone", "value": "inactive"}]}
{"smiles": "CC(=O)Oc1ccccc1C(=O)Nc1ncc([N+](=O)[O-])s1", "note": "[nitazoxanide]", "values": [{"measurement": "inhibition of enzymatic activity", "setting": "[3]", "value": "inhibit the enzymatic activity"}]}
{"smiles": "CC(=O)Oc1cccc2c1C(=O)c1c(OC(C)=O)cc(C(=O)O)cc1C2=O", "note": "[diacerein]", "values": [{"measurement": "inhibition of IL-1 synthesis", "setting": "interleukin-1 (IL-1)", "value": "directly inhibits the synthesis"}]}
